From patent publication US20240270762A1, “PENICILLIN-BINDING PROTEIN INHIBITORS” (priority 2021, published 2024)
Values after ≈ are worked out from the molar mass of the structure shown.

Experiments:
A. baumannii PBP2 = A. baumannii PBP2 (Acinetobacter baumannii, UniProt D0C8Z9); assay: Bocillin-FL competition binding via gel filtration, A. baumannii PBP2
Method in brief: (§1)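 Competitive equilibrium binding; reporter Bocillin-FL. PBP + inhibitor (titration) pre-incubated → Bocillin-FL, 15 min → gel filtration → fluorescence. EC50 from Hill fit of fraction bound vs [inhibitor].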

A. baumannii PBP1a = target: T1, A. baumannii PBP1a (Acinetobacter baumannii, UniProt A0ABX6CK30); assay: Bocillin-FL competition binding via gel filtration, A. baumannii PBP1a; conditions: competition binding assay using Bocillin-FL via gel filtration; read-out: A. baumannii PBP1a Potency
T1 sequence (A0ABX6CK30 1-851): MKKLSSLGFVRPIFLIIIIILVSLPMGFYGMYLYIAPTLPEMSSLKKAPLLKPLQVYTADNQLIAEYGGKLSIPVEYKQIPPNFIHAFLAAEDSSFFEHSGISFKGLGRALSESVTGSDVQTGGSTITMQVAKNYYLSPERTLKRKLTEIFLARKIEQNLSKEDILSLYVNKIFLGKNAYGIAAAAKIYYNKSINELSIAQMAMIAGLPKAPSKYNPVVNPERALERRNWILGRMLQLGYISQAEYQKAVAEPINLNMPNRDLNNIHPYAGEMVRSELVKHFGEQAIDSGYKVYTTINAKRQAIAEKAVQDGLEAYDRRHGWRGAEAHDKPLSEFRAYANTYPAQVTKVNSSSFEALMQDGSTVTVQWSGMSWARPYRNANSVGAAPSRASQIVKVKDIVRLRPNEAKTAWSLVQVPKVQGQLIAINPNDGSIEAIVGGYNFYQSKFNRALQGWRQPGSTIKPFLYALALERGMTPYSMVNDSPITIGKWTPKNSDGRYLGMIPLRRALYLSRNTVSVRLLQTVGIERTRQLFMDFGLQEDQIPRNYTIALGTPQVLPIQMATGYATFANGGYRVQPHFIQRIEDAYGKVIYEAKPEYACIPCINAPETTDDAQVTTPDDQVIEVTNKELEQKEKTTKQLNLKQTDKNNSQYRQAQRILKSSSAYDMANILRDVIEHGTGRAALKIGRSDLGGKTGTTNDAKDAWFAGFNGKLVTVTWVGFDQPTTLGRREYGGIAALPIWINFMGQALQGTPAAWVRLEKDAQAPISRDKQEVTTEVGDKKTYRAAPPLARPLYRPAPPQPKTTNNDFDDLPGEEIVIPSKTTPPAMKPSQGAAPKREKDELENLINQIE
Method in brief: as §1

P. aeruginosa CDC-0095 = assay: microbe, parasite or virus in culture; assay type: cell-based; conditions: Pseudomonas aeruginosa, CDC0095, read-out: Minimum inhibitory concentration, P. aeruginosa CDC-0095
A. baumannii CDC-0045 = assay: microbe, parasite or virus in culture; assay type: cell-based; conditions: Acinetobacter baumannii, CDC0045, read-out: MIC, A. baumannii CDC-0045
[1] = target: T2, PBP3 from Pseudomonas aeruginosa (PAO1) (Pseudomonas aeruginosa, UniProt G3XD46); assay: Bocillin-FL fluorescence polarization competition binding, P. aeruginosa PBP3; conditions: Binding affinity to P. aeruginosa PBP3; fluorescence polarization competition binding assay using Bocillin-FL; read-out: P. aeruginosa PBP3 Potency
T2 construct: made in house
Method in brief: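 Purified PBP was preincubated with inhibitor (E. coli PBP3 1.5 μM, 30 min; P. aeruginosa PBP3 0.75 μM, A. baumannii PBP3 0.2 μM and PBP1a 1 μM, 15 min), then Bocillin-FL (0.1 μM; 0.05 μM for PBP1a) added and FP read up to 60 min. EC50 = 50% loss of bound probe.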

A. baumannii CDC-0033 = assay: microbe, parasite or virus in culture; assay type: cell-based; conditions: Acinetobacter baumannii, CDC0033, read-out: MIC, A. baumannii CDC-0033

A. baumannii PBP2, sequence (D0C8Z9 whole entry): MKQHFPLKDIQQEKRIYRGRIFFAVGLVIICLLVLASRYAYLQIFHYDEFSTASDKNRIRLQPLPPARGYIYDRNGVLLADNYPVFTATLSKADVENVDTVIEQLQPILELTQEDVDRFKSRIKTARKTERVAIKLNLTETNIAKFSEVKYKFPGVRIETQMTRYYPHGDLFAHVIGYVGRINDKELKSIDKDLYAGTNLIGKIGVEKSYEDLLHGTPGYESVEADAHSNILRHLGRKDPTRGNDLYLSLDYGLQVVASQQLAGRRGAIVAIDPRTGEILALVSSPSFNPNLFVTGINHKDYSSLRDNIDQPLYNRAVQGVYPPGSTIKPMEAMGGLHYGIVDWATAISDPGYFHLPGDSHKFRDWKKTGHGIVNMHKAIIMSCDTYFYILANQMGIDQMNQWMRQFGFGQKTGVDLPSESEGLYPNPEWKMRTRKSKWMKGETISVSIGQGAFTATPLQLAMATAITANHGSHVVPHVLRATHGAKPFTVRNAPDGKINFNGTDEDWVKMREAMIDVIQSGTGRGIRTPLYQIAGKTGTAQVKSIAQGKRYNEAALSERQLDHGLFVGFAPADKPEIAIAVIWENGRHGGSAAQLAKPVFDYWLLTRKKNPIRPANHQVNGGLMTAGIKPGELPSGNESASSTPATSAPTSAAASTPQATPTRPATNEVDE
T2 sequence (G3XD46 whole entry): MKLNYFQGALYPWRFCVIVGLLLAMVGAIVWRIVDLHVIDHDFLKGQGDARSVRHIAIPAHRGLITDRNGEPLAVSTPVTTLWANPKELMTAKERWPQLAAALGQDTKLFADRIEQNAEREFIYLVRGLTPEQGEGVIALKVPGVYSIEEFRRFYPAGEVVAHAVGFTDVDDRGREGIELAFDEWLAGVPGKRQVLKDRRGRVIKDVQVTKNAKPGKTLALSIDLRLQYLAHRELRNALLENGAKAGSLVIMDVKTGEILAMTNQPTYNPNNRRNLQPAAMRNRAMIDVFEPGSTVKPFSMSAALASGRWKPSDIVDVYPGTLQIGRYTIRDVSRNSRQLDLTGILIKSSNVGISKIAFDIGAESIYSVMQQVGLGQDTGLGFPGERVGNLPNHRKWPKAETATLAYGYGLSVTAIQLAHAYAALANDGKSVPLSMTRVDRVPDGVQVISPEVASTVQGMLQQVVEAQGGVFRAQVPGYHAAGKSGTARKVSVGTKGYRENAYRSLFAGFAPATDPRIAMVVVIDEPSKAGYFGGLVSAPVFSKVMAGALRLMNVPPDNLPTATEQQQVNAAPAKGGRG

Compound | EC50 (A. baumannii PBP2) [µM] | EC50 (A. baumannii PBP1a) [µM] | MIC (P. aeruginosa CDC-0095) [µg/mL] | MIC (A. baumannii CDC-0045) [µg/mL] | IC50 [1] [µM] | MIC (A. baumannii CDC-0033) [µg/mL]
CN(CCCN1CCN(C(=O)NC(C(=O)N[C@H]2Cc3ccc(F)c(C(=O)O)c3OB2O)c2cc(F)c(O)c(O)c2Cl)C(=O)C1=O)C(=O)c1cccc(O)c1 (stereo partly drawn) [Example 310, (3R)-3-(2-(2-chloro-5-fluoro-3,4-dihydroxyphenyl)-2-(4-(3-(3-hydroxy-N-methylbenzamido)propyl)-2,3-dioxopiperazine-1-carboxamido)acetamido)-7-fluoro-2-hydroxy-3,4-dihydro-2H-benzo[e][1,2]oxaborinine-8-carboxylic acid] | 10 to 50 | 50 to 250 | 2 to 4 (≈ 2.58 to 5.17 µM) | < 1 | < 10 | 2 to 4 (≈ 2.58 to 5.17 µM)
O=C(NCCCN1CCN(C(=O)NC(C(=O)N[C@H]2Cc3ccc(F)c(C(=O)O)c3OB2O)c2cc(F)c(O)c(O)c2Cl)C(=O)C1=O)c1ccncc1F (stereo partly drawn) [Example 400, (3R)-3-(2-(2-chloro-5-fluoro-3,4-dihydroxyphenyl)-2-(4-(3-(3-fluoroisonicotinamido)propyl)-2,3-dioxopiperazine-1-carboxamido)acetamido)-7-fluoro-2-hydroxy-3,4-dihydro-2H-benzo[e][1,2]oxaborinine-8-carboxylic acid] | 10 to 50 | 10 to 50 | 2 to 4 (≈ 2.62 to 5.24 µM) | < 1 | < 10 | 2 to 4 (≈ 2.62 to 5.24 µM)
O=C(NCCCN1CCN(C(=O)NC(C(=O)N[C@H]2Cc3ccc(F)c(C(=O)O)c3OB2O)c2cc(F)c(O)c(O)c2Cl)C(=O)C1=O)c1c(F)cncc1F (stereo partly drawn) [Example 402, (3R)-3-(2-(2-chloro-5-fluoro-3,4-dihydroxyphenyl)-2-(4-(3-(3,5-difluoroisonicotinamido)propyl)-2,3-dioxopiperazine-1-carboxamido)acetamido)-7-fluoro-2-hydroxy-3,4-dihydro-2H-benzo[e][1,2]oxaborinine-8-carboxylic acid] | 10 to 50 | < 10 | < 1 | < 1 | < 10 | 2 to 4 (≈ 2.56 to 5.12 µM)
O=C(NCCCN1CCN(C(=O)NC(C(=O)N[C@H]2Cc3ccc(F)c(C(=O)O)c3OB2O)c2cc(F)c(O)c(O)c2Cl)C(=O)C1=O)c1c(F)cncc1Cl (stereo partly drawn) [Example 403, (3R)-3-(2-(2-chloro-5-fluoro-3,4-dihydroxyphenyl)-2-(4-(3-(3-chloro-5-fluoroisonicotinamido)propyl)-2,3-dioxopiperazine-1-carboxamido)acetamido)-7-fluoro-2-hydroxy-3,4-dihydro-2H-benzo[e][1,2]oxaborinine-8-carboxylic acid] | 10 to 50 | 10 to 50 | 2 to 4 (≈ 2.51 to 5.02 µM) | < 1 | < 10 | 2 to 4 (≈ 2.51 to 5.02 µM)
O=C(NCCCN1CCN(C(=O)NC(C(=O)N[C@H]2Cc3ccc(F)c(C(=O)O)c3OB2O)c2cc(F)c(O)c(O)c2Cl)C(=O)C1=O)c1cc(F)c(F)c(O)c1F (stereo partly drawn) [Example 404, (3R)-3-(2-(2-chloro-5-fluoro-3,4-dihydroxyphenyl)-2-(2,3-dioxo-4-(3-(2,4,5-trifluoro-3-hydroxybenzamido)propyl)piperazine-1-carboxamido)acetamido)-7-fluoro-2-hydroxy-3,4-dihydro-2H-benzo[e][1,2]oxaborinine-8-carboxylic acid] | < 10 | < 10 | 2 to 4 (≈ 2.46 to 4.91 µM) | < 1 | < 10 | 2 to 4 (≈ 2.46 to 4.91 µM)
O=C(NCCCN1CCN(C(=O)NC(C(=O)N[C@H]2Cc3ccc(F)c(C(=O)O)c3OB2O)c2cc(F)c(O)c(O)c2Cl)C(=O)C1=O)c1cccc(O)c1F (stereo partly drawn) [Example 406, (3R)-3-(2-(2-chloro-5-fluoro-3,4-dihydroxyphenyl)-2-(4.-(3-(2-fluoro-3-hydroxybenzamido)propyl)-2,3-dioxopiperazine-1-carboxamido)acetamido)-7-fluoro-2-hydroxy-3,4-dihydro-2H-benzo[e][1,2]oxaborinine-8-carboxylic acid] | 10 to 50 | < 10 | < 1 | < 1 | < 10 | 2 to 4 (≈ 2.57 to 5.14 µM)
